Converted amounts (≈) assume the structure as drawn.
Key:
cucumber plants = assay: In vivo phytotoxic activity, foliar spray, cucumber; set-up: key: +: indicating presence of a plant growth regulatory effect as compared to a control to which a solvent mixture (acetone/water/methanol) lacking the test compound was applied; 0: A zero indicates no apparent effect; details: foliar spray 2200 g/Ha, seven days after application
Description: (§1) The compounds of Examples 1 and 12 were tested in vivo for phytotoxic activity by applying the compounds to the foliage of cucumber, tomato, bean, lettuce and strawberry plants as a spray at a rate of 2200 g/Ha. The plants were evaluated seven days after spray application of the compounds.
(§2) Phototoxicity scores are set forth below in Table 6. The phytotoxicity scores use a symbol, "+", indicating presence of a plant growth regulatory effect as compared to a control to which a solvent mixture (acetone/water/methanol) lacking the test compound was applied. A zero indicates no apparent effect. Each score is a composite representing the mode value for three replicate plants.

strawberry plants = assay: In vivo phytotoxic activity, foliar spray, strawberry; set-up: key: +: indicating presence of a plant growth regulatory effect as compared to a control to which a solvent mixture (acetone/water/methanol) lacking the test compound was applied; 0: A zero indicates no apparent effect; details: foliar spray 2200 g/Ha, seven days after application
Description: as §1, §2

[1] = Tobacco root assay for phytotoxicity (in vitro root elongation); details: 7 days, 27° C., read-out: Tob. EC50
Description: The compounds of Examples 1-20 were tested in vitro for fungicidal activity and phytotoxicity.
B. The compounds were tested in vitro for phytotoxicity in a tobacco root elongation assay.
Tobacco root assay for Phytotoxicity:
A dilution series of test compound was prepared in dimethylsulfoxide and 20 ul of each dilution was added to 20 ml of molten nutrient medium, consisting of Murashige and Skoog salt base, 2% sucrose and 1% agar, to give the desired concentrations of test compound. The mixtures were poured immediately into 9 cm diameter petri dishes. Surface-sterilized tobacco seeds were placed on each plate (20 seeds per plate) and the plates incubated in a vertical position in a 27° C. incubator with a 16 hour photoperiod. After 7 days the mean root lengths were calculated, and EC50 values determined from dose response curves.
Results of the tobacco root assay are set forth below in Table 3 as Tob. EC50 (ppm).

bean plants = assay: In vivo phytotoxic activity, foliar spray, bean; set-up: key: +: indicating presence of a plant growth regulatory effect as compared to a control to which a solvent mixture (acetone/water/methanol) lacking the test compound was applied; 0: A zero indicates no apparent effect; details: foliar spray 2200 g/Ha, seven days after application
Description: as §1, §2

Botrytis cinerea [2] = assay: Fungitoxicity assay against Botrytis cinerea (in vitro, colony diameter); type: cell-based; details: 48 hours at 25° C., read-out: Botrytis EC50
Description: The compounds of Examples 1-20 were tested in vitro for fungicidal activity and phytotoxicity. A. The compounds were tested in vitro for fungicidal activity against Pythium ultimum, Botrytis cinerea and Venturia inaequalis. Fungitoxicity assay against Botrytis cinerea: […] The mixtures were poured immediately into 9 centimeter (cm) diameter petri dishes. Two replicate plates were used for each treatment. Each plate was inoculated with a 7 mm diameter plug taken from the growing edge of a 5 day old culture of B. cinerea on potato dextrose agar. […] Results of the testing for fungicidal activity against the above named fungi are set forth below in Table 3 as Pythium EC50 (ppm), Botrytis EC50 (ppm) and Venturia MIC (ppm), respectively.

Venturia inaequalis = assay: Fungitoxicity assay against Venturia inaequalis (in vitro, microtiter MIC); type: cell-based; details: 168 h, minimum inhibitory concentration, 7 days at 25° C.
Description: The compounds of Examples 1-20 were tested in vitro for fungicidal activity and phytotoxicity. A. The compounds were tested in vitro for fungicidal activity against Pythium ultimum, Botrytis cinerea and Venturia inaequalis. Fungitoxicity assay against Venturia inaequalis: Test compounds were dissolved in dimethylsulfoxide at 1 milligram per milliliter (mg/ml), and 50 ul added to 950 ul of yeast extract-dextrose medium (YED, 0.4% yeast extract, 2% dextrose) to give 50 part per million (ppm) solutions. Minimum inhibitory concentration (MIC) values were determined using a microtiter assay with twofold serial dilutions of the prepared 50 ppm solutions (100 ul) in YED medium. Inoculum consisted of a spore suspension of V. inaequalis in YED medium at 2.5×10^5 spores per ml. […] Results of the testing for fungicidal activity against the above named fungi are set forth below in Table 3 as Pythium EC50 (ppm), Botrytis EC50 (ppm) and Venturia MIC (ppm), respectively.

Pythium ultimum [3] = assay: Fungitoxicity assay against Pythium ultimum (in vitro, mycelial dry weight); type: cell-based; details: Globisporangium ultimum, 48 hours at 25° C., read-out: Pythium EC50
Description: The compounds of Examples 1-20 were tested in vitro for fungicidal activity and phytotoxicity. A. The compounds were tested in vitro for fungicidal activity against Pythium ultimum, Botrytis cinerea and Venturia inaequalis. Fungitoxicity assay against Pythium ultimum: A dilution series of test compound was prepared in dimethylsulfoxide, and 0.1 milliliter (ml) of each dilution was added to 19.9 ml of a liquid asparagine-sucrose broth ([…]. and Katznelson, K., 1971, Can. J. […] Each plate was inoculated with a mycelial plug, 7 millimeters (mm) in diameter, taken from the growing edge of a culture of Pythium ultimum grown on potato dextrose agar. Two replicate plates were used for each treatment. The increase in mycelial dry weight was determined after growth for 48 hours at 25° C. with shaking on a gyrotary shaker at 60 revolutions per minute (rpm). EC50 values were calculated from dose response curves. As used herein, the terminology "EC50" means the concentration of test compound required to inhibit growth by 50% as compared to a control lacking the test compound. Results of the testing for fungicidal activity against the above named fungi are set forth below in Table 3 as Pythium EC50 (ppm), Botrytis EC50 (ppm) and Venturia MIC (ppm), respectively.

tomato plants = assay: In vivo phytotoxic activity, foliar spray, tomato; set-up: key: +: indicating presence of a plant growth regulatory effect as compared to a control to which a solvent mixture (acetone/water/methanol) lacking the test compound was applied; 0: A zero indicates no apparent effect; details: foliar spray 2200 g/Ha, seven days after application
Description: as §1, §2

lettuce plants = assay: In vivo phytotoxic activity, foliar spray, lettuce; set-up: key: +: indicating presence of a plant growth regulatory effect as compared to a control to which a solvent mixture (acetone/water/methanol) lacking the test compound was applied; 0: A zero indicates no apparent effect; details: foliar spray 2200 g/Ha, seven days after application
Description: as §1, §2

Cercospora beticola = assay: microbe, parasite or virus in culture; type: cell-based; details: 72 h, 3 days at room temperature, read-out: CER percent inhibition of fungal growth
Monilinia fructicol = assay: microbe, parasite or virus in culture; type: cell-based; details: 72 h, 3 days at room temperature, read-out: MON percent inhibition of fungal growth
Botrytis cinerea [4] = assay: microbe, parasite or virus in culture; type: cell-based; details: 72 h, 3 days at room temperature, read-out: BOC percent inhibition of fungal growth
[5] = system: Colletotrichum lagenarium; assay: microbe, parasite or virus in culture; type: cell-based; details: Colletotrichum orbiculare, 72 h, 3 days at room temperature, read-out: COL percent inhibition of fungal growth
Fusarium roseum = assay: microbe, parasite or virus in culture; type: cell-based; details: Fusarium sambucinum, 72 h, read-out: FUS percent inhibition of fungal growth
Piricularia oryzae = assay: organism not typed; type: cell-based; details: 72 h, read-out: PIR percent inhibition of fungal growth
[6] = system: Pseudocercosporella herpotrichoides; assay: microbe, parasite or virus in culture; type: cell-based; details: Oculimacula yallundae, 72 h, 3 days at room temperature, read-out: PSH percent inhibition of fungal growth
Rhizoctonia solani = assay: microbe, parasite or virus in culture; type: cell-based; details: 72 h, 3 days at room temperature, read-out: RHI percent inhibition of fungal growth
Pythium ultimum [7] = assay: microbe, parasite or virus in culture; type: cell-based; details: Globisporangium ultimum, 72 h, 3 days at room temperature, read-out: PYU percent inhibition of fungal growth
Phytophthora capsici = assay: microbe, parasite or virus in culture; type: cell-based; details: 72 h, 3 days at room temperature, read-out: PHY percent inhibition of fungal growth

SMILES | IC50 at 168 h [1] | IC50 (Botrytis cinerea [2]) | MIC (Venturia inaequalis) | IC50 (Pythium ultimum [3]) | further results
CCC(C)(NC(=O)c1cccc(C=NOC)c1)C(=O)CCl (stereo not drawn) [Example 1, 3-(3'-Methoxyiminomethylbenzamido)-1-chloro-3-methylpentan-2-one] | 1.86 µg/mL (≈ 5.98 µM) | 9.5 µg/mL (≈ 30.6 µM) | 1.56 µg/mL (≈ 5.02 µM) | 0.31 µg/mL (≈ 0.997 µM) | phytotoxicity score, Cucumber (cucumber plants): 0; phytotoxicity score, Strawberry (strawberry plants): +; phytotoxicity score, Bean (bean plants): 0; phytotoxicity score, Tomato (tomato plants): 0; phytotoxicity score, Lettuce (lettuce plants): 0
CON=Cc1cccc(C(=O)NC(C)(C)C(=O)CCl)c1 [Example 2, 3-(3'-Methoxyiminomethylbenzamido)-1-chloro-3-methylbutan-2-one] | 4.94 µg/mL (≈ 16.6 µM) | 71.3 µg/mL (≈ 240 µM) | 12.5 µg/mL (≈ 42.1 µM) | 1.61 µg/mL (≈ 5.43 µM) | 
CCON=Cc1cccc(C(=O)NC(C)(CC)C(=O)CCl)c1 (stereo not drawn) [Example 3] | 5.35 µg/mL (≈ 16.5 µM) | 21.8 µg/mL (≈ 67.1 µM) | 6.25 µg/mL (≈ 19.2 µM) | 2.07 µg/mL (≈ 6.37 µM) | 
CCON=Cc1cccc(C(=O)NC(C)(CC)C(=O)C(Cl)Cl)c1 (stereo not drawn) [Example 4] |  | 68.9 µg/mL (≈ 192 µM) | > 25 µg/mL | 68.4 µg/mL (≈ 190 µM) | 
CCC(C)(NC(=O)c1cccc(C=NOC)c1)C(=O)C(Cl)Cl (stereo not drawn) [Example 5, 3-(3'-Methoxyiminomethylbenzamido)-1,1-dichloro-3-methylpentan-2-one] |  | 54.6 µg/mL (≈ 158 µM) | > 25 µg/mL | 16.3 µg/mL (≈ 47.2 µM) | 
CCC(C)(NC(=O)c1cccc(C=NOCC(=O)OC)c1)C(=O)CCl (stereo not drawn) [Example 7] | 9.48 µg/mL (≈ 25.7 µM) | > 100 µg/mL | > 25 µg/mL | 22.8 µg/mL (≈ 61.8 µM) | 
CCC(C)(NC(=O)c1cccc(C=NOC(C)(C)C)c1)C(=O)CCl (stereo not drawn) [Example 8] | 46.8 µg/mL (≈ 133 µM) | > 100 µg/mL | > 25 µg/mL | 173 µg/mL (≈ 489 µM) | 
CCC(C)(NC(=O)c1cc(Cl)cc(C=NOC)c1)C(=O)CCl (stereo not drawn) [Example 9, N-[3'-(1'-chloro-3'-methyl-2'-oxopentan)]-3-chloro-5-methoxyiminomethylbenzamide] | 0.06 µg/mL (≈ 0.174 µM) | 0.25 µg/mL (≈ 0.724 µM) | 0.05 µg/mL (≈ 0.145 µM) | 0.05 µg/mL (≈ 0.145 µM) | inhibition at 25 ppm (Cercospora beticola): 100%; inhibition at 25 ppm (Monilinia fructicol): 100%; inhibition at 25 ppm (Botrytis cinerea [4]): 90%; inhibition at 25 ppm [5]: 90%; inhibition at 25 ppm (Fusarium roseum): 75%; inhibition at 25 ppm (Piricularia oryzae): 100%; inhibition at 25 ppm [6]: 100%; inhibition at 25 ppm (Rhizoctonia solani): 90%; inhibition at 25 ppm (Pythium ultimum [7]): 100%; inhibition at 25 ppm (Phytophthora capsici): 100%
CCC(C)(NC(=O)c1ccc(C=NOC)cc1)C(=O)CCl (stereo not drawn) [Example 10, 3-(4'-Methoxyiminomethylbenzamido)-1-chloro-3-methylpentan-2-one] | 21.7 µg/mL (≈ 69.8 µM) |  |  | 1.57 µg/mL (≈ 5.05 µM) | 
CCC(C)(NC(=O)c1cccc(C=NOC)c1)C(=O)CSC#N (stereo not drawn) [Example 13, N-[3'-(1'-thiocyano-3'-methyl-2'oxopentan)]-3-methoxyiminomethylbenzamide] | > 20 µg/mL |  |  | 7.38 µg/mL (≈ 22.1 µM) | 
CCC(C)(NC(=O)c1ccc(Cl)c(C=NOC)c1)C(=O)CCl (stereo not drawn) [Example 14, N-[3'-(1'-chloro-3'-methyl-2'-oxopentan)]-4-chloro-3-methoxyiminomethylbenzamide] | 1.25 µg/mL (≈ 3.62 µM) | 28.1 µg/mL (≈ 81.4 µM) | 25 µg/mL (≈ 72.4 µM) | 4.68 µg/mL (≈ 13.6 µM) | 
CCC(C)(NC(=O)c1cc(C=NOC)cc(C=NOC)c1)C(=O)CCl (stereo not drawn) [Example 15, N-[3'-(1'-chloro-3'-methyl-2'-oxopentan)]-3,5-dimethoxyiminomethylbenzamide] | 2.33 µg/mL (≈ 6.33 µM) | 4.19 µg/mL (≈ 11.4 µM) | 1.56 µg/mL (≈ 4.24 µM) | 4.16 µg/mL (≈ 11.3 µM) | 
CCC(C)(NC(=O)c1ccc(C=NOC)c(Cl)c1)C(=O)CCl (stereo not drawn) [Example 16, N-[3'-(1'-chloro-3'-methyl-2'-oxopentan)]-3-chloro-4-methoxyiminomethylbenzamide] | 11.3 µg/mL (≈ 32.8 µM) | 12.6 µg/mL (≈ 36.5 µM) | 6.25 µg/mL (≈ 18.1 µM) | 0.58 µg/mL (≈ 1.68 µM) | 
CCC(C)(NC(=O)c1cccc(C(C)=NOC)c1)C(=O)CCl (stereo not drawn) [Example 17] |  | 97.3 µg/mL (≈ 300 µM) | > 25 µg/mL | 24.2 µg/mL (≈ 74.5 µM) | 
CCC(C)(NC(=O)c1cc(C)cc(C=NO)c1)C(=O)CCl (stereo not drawn) [Example 18] |  | 53.9 µg/mL (≈ 173 µM) | > 25 µg/mL | 5.95 µg/mL (≈ 19.1 µM) | 
CCC(C)(NC(=O)c1ccc(C(C)=NOC)cc1)C(=O)CCl (stereo not drawn) [Example 19, 3-(4'-Methoxyiminomethyl(methyl)benzamido)-1-chloro-3-methylpentan-2-one] |  | > 100 µg/mL | > 25 µg/mL | > 10 µg/mL | 
CCC(C)(NC(=O)c1cc(Cl)c(C=NOC)c(Cl)c1)C(=O)CCl (stereo not drawn) [Example 20, N-[3'-(1'-chloro-3'-methyl-2'-oxopentan)]-3,5-dichloro-4-methoxyiminobenzamide] | 1 µg/mL (≈ 2.63 µM) |  |  | 0.23 µg/mL (≈ 0.606 µM) | 

Reference: patent publication US5254584A, “N-acetonylbenzamides and their use as fungicides” (Rohm and Haas Company, priority 1992, dated 1993)
